Measurements: US12285403B2, “A2-73 as a therapeutic for insomnia, anxiety and agitation” (Anavex Life Sciences Corp., priority 2016, dated 2025)
Entries after “also recorded” stand apart in the source; their conditions may differ.

What was measured:
Type in all cases: in vivo, human
[1] = system: mild-to-moderate Alzheimer's disease patients; assay: Cogstate test battery, Phase 2a study; settings: over 31 weeks of treatment; FIG. 8; listed as ANAVEX 2-73, hydrochloride
Description: Although the present invention calls for methods of treating insomnia, some primary sleep disorders, such as circadian rhythm disorders, advanced sleep phase disorder also termed sleep onset insomnia, mid-nocturnal insomnia, early morning insomnia, hyper insomnia, trouble staying asleep, jet lag, narcolepsy, non-24-hour sleep-wake syndrome, include insomnia as a component of the disorder. Thus, the term “insomnia” should be understood to also include the insomnia component of these disorders. • Aβ—Amyloid beta is abbreviated as Aβ. • AD—Alzheimer's disease is abbreviated as AD. • ADCS-ADL—Alzheimer's Disease Cooperative Study Activities of Daily Living Inventory is abbreviated as ADCS-ADL. • Cogstate tasks—Cogstate tasks refers to Cogstate cognitive tests (Cogstate Alzheimer's Battery) using visual and verbal stimuli to ensure assessment. […] When a number of these individual tests are put together to form a test battery, a more complete picture of a person's cognitive state can be defined. • DPZ—Donepezil is abbreviated as DPZ. • EEG/ERP—EEG/ERP is a reference to ERP measured via EEG. • ERP—Event-related potential is abbreviated as ERP. • HAM-D—Hamilton Depression Rating Scale is abbreviated as HAM-D. • MCI—Mild cognitive impairment is abbreviated as MCI. • MMSE—MMSE refers to the Mini-Mental State Examination (MMSE) or Folstein test. […]

[2] = system: mild-to-moderate Alzheimer's disease patients; assay: ADCS-ADL (Activities of Daily Living), Phase 2a study; settings: for ADCS-ADL scores: through week 31, oral daily 10 mg to 50 mg, FIG. 2
Description: (§1) Although the present invention calls for methods of treating insomnia, some primary sleep disorders, such as circadian rhythm disorders, advanced sleep phase disorder also termed sleep onset insomnia, mid-nocturnal insomnia, early morning insomnia, hyper insomnia, trouble staying asleep, jet lag, narcolepsy, non-24-hour sleep-wake syndrome, include insomnia as a component of the disorder. Thus, the term “insomnia” should be understood to also include the insomnia component of these disorders. • Aβ—Amyloid beta is abbreviated as Aβ. • AD—Alzheimer's disease is abbreviated as AD. • ADCS-ADL—Alzheimer's Disease Cooperative Study Activities of Daily Living Inventory is abbreviated as ADCS-ADL. • Cogstate tasks—Cogstate tasks refers to Cogstate cognitive tests (Cogstate Alzheimer's Battery) using visual and verbal stimuli to ensure assessment. These tests assess cognitive function in adults with mild cognitive impairment and clinically-diagnosed Alzheimer's disease. The test is culture-neutral and not limited by a subject or participant's level of education. A Cogstate battery comprises a number of individual tests—each designed to test a specific area of cognition. When a number of these individual tests are put together to form a test battery, a more complete picture of a person's cognitive state can be defined. • DPZ—Donepezil is abbreviated as DPZ. • EEG/ERP—EEG/ERP is a reference to ERP measured via EEG. • ERP—Event-related potential is abbreviated as ERP. • HAM-D—Hamilton Depression Rating Scale is abbreviated as HAM-D. • MCI—Mild cognitive impairment is abbreviated as MCI. • MMSE—MMSE refers to the Mini-Mental State Examination (MMSE) or Folstein test. This test is a 30-point questionnaire that is used extensively in clinical and research settings to measure cognitive impairment. • SWS—Slow-wave sleep is abbreviated as SWS. • WASO.—Waking after sleep onset is abbreviated WASO.
(§2) Efficacy data is presented through 31 week from the randomized (into different treatment regimens) open-label study with ANAVEX 2-73 oral daily dosing ranging from 10 mg to 50 mg. […]

[3] = system: mild-to-moderate Alzheimer's disease patients; assay: MMSE (Mini-Mental State Examination), Phase 2a study; settings: over 31 weeks; for MMSE scores: oral daily 10 mg to 50 mg, FIG. 1
Description: as §1, §2

[4] = listed as ANAVEX 2-73, hydrochloride

**Q.** With `CN(C)CC1CCOC1(c1ccccc1)c1ccccc1.Cl` (stereo not shown) [A2-73, tetrahydro-N,N-dimethyl-2,2-diphenyl-3-furanmethanamine hydrochloride] as the molecule, how does the “Cogstate tasks: psychomotor function, attention and working memory” value [1] read?
**A.** Its value is “sustained benefit; also recorded: benefits over baseline”.

**Q.** What about the “ADCS-ADL score, ANAVEX 2-73 alone vs ANAVEX 2-73 with DPZ (donepezil)” value ([2]; over 31 weeks, exploratory analysis, FIG. 6) of the same molecule?
**A.** Its value is “no notable difference”.

**Q.** What about the ADCS-ADL scores ([2]; hydrochloride) of the same molecule?
**A.** The ADCS-ADL scores was “maintained at a constant level”.

**Q.** And the ADCS-ADL scores [2, 4]?
**A.** The ADCS-ADL scores was “preserves average MMSE and ADCS-ADL scores”.

**Q.** And the MMSE scores ([3]; hydrochloride)?
**A.** Its MMSE scores is “maintained at the same level”.

**Q.** And the MMSE scores [3, 4]?
**A.** Its MMSE scores is “preserves average MMSE and ADCS-ADL scores”.

**Q.** And the “MMSE score, ANAVEX 2-73 alone vs ANAVEX 2-73 with DPZ (donepezil)” value ([3]; exploratory analysis, FIG. 5)?
**A.** The value was “no notable difference”.
